Experimental data reported in ChEMBL document CHEMBL1201862, “PubChem BioAssay data set” (2004).
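Cells were grown in 96-well plates and exposed to each compound for 48 hours at five concentrations; endpoints were interpolated linearly between bracketing concentrations, or set to the highest concentration if not reached. GI50 is the concentration that inhibits growth by half.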 Calls of active or inactive are those of the source. No stated cut-off is given here; in the data, active = GI50 up to about 1.1 µM and inactive = higher.

What was measured:
Assay in all cases: NCI-60 cell line screen, 48 h
786-0 = tested on: 786-0
A549 = tested on: A549
CAKI-1 = tested on: CAKI-1
CCRF-CEM = tested on: CCRF-CEM
COLO 205 = tested on: COLO 205
DU-145 = tested on: DU-145
EKVX = tested on: EKVX
HCC 2998 = tested on: HCC 2998
HCT-15 = tested on: HCT-15
HL-60 = tested on: HL-60
HOP-62 = tested on: HOP-62
HT-29 = tested on: HT-29
IGROV-1 = tested on: IGROV-1
K562 = tested on: K562
KM12 = tested on: KM12
LOX IMVI = tested on: LOX IMVI
M14 = tested on: M14
MCF7 = tested on: MCF7
MDA-MB-231 = tested on: MDA-MB-231
MDA-N = tested on: MDA-N
Malme-3M = tested on: Malme-3M
NCI-H23 = tested on: NCI-H23
OVCAR-8 = tested on: OVCAR-8
PC-3 = tested on: PC-3
RPMI-8226 = tested on: RPMI-8226
RXF 393 = tested on: RXF 393
SF-268 = tested on: SF-268
SF-295 = tested on: SF-295
SK-MEL-28 = tested on: SK-MEL-28
SK-MEL-5 = tested on: SK-MEL-5
SK-OV-3 = tested on: SK-OV-3
SN12C = tested on: SN12C
SNB-75 = tested on: SNB-75
SR = tested on: SR
SW-620 = tested on: SW-620
T47D = tested on: T47D
TK-10 = tested on: TK-10
UACC-257 = tested on: UACC-257
UACC-62 = tested on: UACC-62
A498 = tested on: A498
ACHN = tested on: ACHN
HCT-116 = tested on: HCT-116
HOP-92 = tested on: HOP-92
Hs-578T = tested on: Hs-578T
MDA-MB-435 = tested on: MDA-MB-435
MOLT-4 = tested on: MOLT-4
NCI-H460 = tested on: NCI-H460
NCI-H522 = tested on: NCI-H522
OVCAR-3 = tested on: OVCAR-3
OVCAR-5 = tested on: OVCAR-5
SF-539 = tested on: SF-539
SK-MEL-2 = tested on: SK-MEL-2
SNB-19 = tested on: SNB-19
U-251 = tested on: U-251
UO-31 = tested on: UO-31
NCI/ADR-RES = tested on: NCI/ADR-RES
OVCAR-4 = tested on: OVCAR-4

COc1ccc(C(=O)/C=C/c2ccc(OCC(=N)N)cc2)cc1OC
GI50 (786-0): 5.04 µM (inactive)
GI50 (A549): 5.97 µM (inactive)
GI50 (CAKI-1): 5.05 µM (inactive)
GI50 (CCRF-CEM): 2.61 µM (inactive)
GI50 (COLO 205): 3.34 µM (inactive)
GI50 (DU-145): > 10 µM (inactive)
GI50 (EKVX): 7.36 µM (inactive)
GI50 (HCC 2998): 6.4 µM (inactive)
GI50 (HCT-15): > 10 µM
GI50 (HL-60): 1.95 µM (inactive)
GI50 (HOP-62): 5.75 µM (inactive)
GI50 (HT-29): 3.1 µM (inactive)
GI50 (IGROV-1): > 10 µM (inactive)
GI50 (K562): 2.37 µM (inactive)
GI50 (KM12): 2.64 µM (inactive)
GI50 (LOX IMVI): 2.52 µM (inactive)
GI50 (M14): 5.87 µM (inactive)
GI50 (MCF7): 3.24 µM (inactive)
GI50 (MDA-MB-231): > 10 µM (inactive)
GI50 (MDA-N): 3.6 µM (inactive)
GI50 (Malme-3M): > 10 µM (inactive)
GI50 (NCI-H23): 3.33 µM (inactive)
GI50 (OVCAR-8): 3.62 µM (inactive)
GI50 (PC-3): 3.84 µM (inactive)
GI50 (RPMI-8226): 2.34 µM (inactive)
GI50 (RXF 393): 4.63 µM (inactive)
GI50 (SF-268): 3.61 µM (inactive)
GI50 (SF-295): > 10 µM (inactive)
GI50 (SK-MEL-28): 8.73 µM (inactive)
GI50 (SK-MEL-5): 7.93 µM (inactive)
GI50 (SK-OV-3): 4.01 µM (inactive)
GI50 (SN12C): > 10 µM (inactive)
GI50 (SNB-75): 4.53 µM (inactive)
GI50 (SR): 1.64 µM (inactive)
GI50 (SW-620): 3.84 µM (inactive)
GI50 (T47D): 3.86 µM (inactive)
GI50 (TK-10): > 10 µM (inactive)
GI50 (UACC-257): 6.79 µM (inactive)
GI50 (UACC-62): > 10 µM (inactive)

COC(=O)C1CCC(=O)N1C(c1cc(OC)c(OC)c(OC)c1)c1cc(OC)c(OC)c(OC)c1 (centres undefined)
GI50 (786-0): > 100 µM (inactive)
GI50 (A498): > 100 µM (inactive)
GI50 (A549): > 100 µM (inactive)
GI50 (ACHN): > 100 µM (inactive)
GI50 (DU-145): > 100 µM (inactive)
GI50 (EKVX): > 100 µM (inactive)
GI50 (HCT-116): > 100 µM (inactive)
GI50 (HCT-15): > 100 µM
GI50 (HL-60): > 100 µM (inactive)
GI50 (HOP-62): > 100 µM (inactive)
GI50 (HOP-92): > 100 µM (inactive)
GI50 (HT-29): > 100 µM (inactive)
GI50 (Hs-578T): > 100 µM (inactive)
GI50 (IGROV-1): 94.6 µM (inactive)
GI50 (K562): > 100 µM (inactive)
GI50 (KM12): > 100 µM (inactive)
GI50 (LOX IMVI): > 100 µM (inactive)
GI50 (M14): > 100 µM (inactive)
GI50 (MCF7): > 100 µM (inactive)
GI50 (MDA-MB-231): > 100 µM (inactive)
GI50 (MDA-MB-435): > 100 µM (inactive)
GI50 (MDA-N): > 100 µM (inactive)
GI50 (MOLT-4): > 100 µM (inactive)
GI50 (NCI-H460): > 100 µM (inactive)
GI50 (NCI-H522): > 100 µM (inactive)
GI50 (OVCAR-3): > 100 µM (inactive)
GI50 (OVCAR-5): > 100 µM (inactive)
GI50 (OVCAR-8): > 100 µM (inactive)
GI50 (PC-3): > 100 µM (inactive)
GI50 (RPMI-8226): > 100 µM (inactive)
GI50 (SF-268): > 100 µM (inactive)
GI50 (SF-295): > 100 µM (inactive)
GI50 (SF-539): > 100 µM (inactive)
GI50 (SK-MEL-28): > 100 µM (inactive)
GI50 (SK-MEL-2): > 100 µM (inactive)
GI50 (SK-OV-3): > 100 µM (inactive)
GI50 (SN12C): > 100 µM (inactive)
GI50 (SNB-19): > 100 µM (inactive)
GI50 (SNB-75): > 100 µM (inactive)
GI50 (SR): > 100 µM (inactive)
GI50 (SW-620): > 100 µM (inactive)
GI50 (T47D): > 100 µM (inactive)
GI50 (TK-10): > 100 µM (inactive)
GI50 (U-251): > 100 µM (inactive)
GI50 (UACC-257): > 100 µM (inactive)
GI50 (UACC-62): > 100 µM (inactive)
GI50 (UO-31): > 100 µM (inactive)

OC(c1cc(-c2ccc(C(F)(F)F)cc2)nc(C(F)(F)F)c1)C1CCCCN1 (centres undefined) [ENPIROLINE PHOSPHATE]
GI50 (786-0): 1.89 µM (inactive)
GI50 (A498): 2.24 µM (inactive)
GI50 (CAKI-1): 5.53 µM (inactive)
GI50 (CCRF-CEM): 1.87 µM (inactive)
GI50 (COLO 205): 1.82 µM (inactive)
GI50 (HCC 2998): 1.69 µM (inactive)
GI50 (HCT-116): 2 µM (inactive)
GI50 (HCT-15): 2.18 µM
GI50 (HL-60): 2.01 µM (inactive)
GI50 (HT-29): 1.95 µM (inactive)
GI50 (IGROV-1): 1.73 µM (inactive)
GI50 (KM12): 1.87 µM (inactive)
GI50 (LOX IMVI): 1.73 µM (inactive)
GI50 (M14): 1.55 µM (inactive)
GI50 (MCF7): 1.8 µM (inactive)
GI50 (MDA-MB-435): 1.86 µM (inactive)
GI50 (MDA-N): 1.67 µM (inactive)
GI50 (MOLT-4): 1.86 µM (inactive)
GI50 (Malme-3M): 1.78 µM (inactive)
GI50 (NCI-H460): 2.08 µM (inactive)
GI50 (NCI-H522): 1.69 µM (inactive)
GI50 (NCI/ADR-RES): 2.62 µM (inactive)
GI50 (OVCAR-4): 1.87 µM (inactive)
GI50 (PC-3): 2.49 µM (inactive)
GI50 (RPMI-8226): 2.61 µM (inactive)
GI50 (RXF 393): 1.78 µM (inactive)
GI50 (SK-MEL-2): 2.02 µM (inactive)
GI50 (SK-OV-3): 2.3 µM (inactive)
GI50 (SR): 2.33 µM (inactive)
GI50 (SW-620): 1.85 µM (inactive)
GI50 (U-251): 1.88 µM (inactive)
GI50 (UACC-257): 2.03 µM (inactive)
GI50 (UACC-62): 1.78 µM (inactive)
